The test system of experiment [1] is RAW264.7. Description: Anti-inflammatory activity in mouse RAW264.7 cells assessed as inhibition of LPS-induced NO production incubated for 24 hrs by Griess reagent based analysis. To be noted: RAW264.7, 24 h. The experiment is classed as functional, cell-based. Background: The Griess reaction detects nitrite, a stable product of nitric oxide.
Experiment [2] can be described thus: Inhibition of hedgehog in […] cells. The experiment is classed as cell-based.
Experiment [3] has as its system Jurkat. The experiment in a line: Antiproliferative activity against human Jurkat cells assessed as reduction in cell viability incubated for 72 hrs by CCK-8 assay. In kind it is functional, cell-based. On the technique in general: Tetrazolium assays rely on reduction of a dye to a coloured formazan, in cell work by metabolically active cells.
Experiment [4] deals with HCT-116. Description: Cytotoxicity against human HCT-116 cells assessed as reduction in cell growth incubated for 72 hrs by CCK-8 assay. The experiment is classed as functional, cell-based. To be noted: HCT-116, 72 h.

Structures are written as SMILES.

Turning to `C=C1CCC2C(/C=C(\C)C(=O)[C@@]3(O)C[C@H](C)[C@H](O)C3[C@H]1OCc1cn(CCOCCOCCOCCNc3cccc4c3C(=O)N(C3CCC(=O)NC3=O)C4=O)nn1)C2(C)C` (some centres undefined), the IC50 – broadly, the concentration at which inhibition is half-maximal – in experiment [1] stood at 8.34 µM.
The molecule `COCCOC(=O)C1=C(c2cccc(OCc3cn(CCCCCCOc4cccc5c4C(=O)N(C4CCC(=O)NC4=O)C5=O)nn3)c2)C2=C(CC(c3ccccc3OC)CC2=O)NC1C` (centres undefined) displayed an IC50 in experiment [2] of 6.21 µM.
Consider `CC1=C(O)C(=O)C=C2C1=CC=C1[C@@]2(C)CC[C@@]2(C)[C@@H]3C[C@](C)(C(=O)NCCOCCNc4cccc5c4C(=O)N(C4CCC(=O)NC4=O)C5=O)CC[C@]3(C)CC[C@@]12C` (some centres undefined), for which the half-inhibitory concentration (IC50) in experiment [3] worked out at 0.25 µM.
In the case of `CN1c2ccc(F)cc2C(=O)N2CCc3c([nH]c4ccc(OCCCNC(=O)CCCCCC#Cc5cccc6c5CN(C5CCC(=O)NC5=O)C6=O)cc34)C21` (centres undefined), the IC50 in experiment [4] was found to be 0.02 µM.

These data come from ChEMBL document CHEMBL6120937, “PROTAC technology: From drug development to probe technology for target deconvolution” (Eur J Med Chem, 2024).
